How the values were obtained:
Format in all cases: cell-based
[1] = biological target: EP4 subtype of the human PGE2 receptor (Homo sapiens, UniProt P35408); test: cAMP antagonism test on the human EP4 receptor (HTRF cAMP detection); settings: selectivity towards hEP4, IC50 measured by cAMP antagonism test
From the text: 2. Detection of Antagonism to the Human Prostaglandin E2 (Subtype EP4) Receptor Signal
(§1) The binding of PGE2 to the EP4 subtype of the human PGE2 receptor induces the activation of membrane-located adenylate cyclases and leads to the formation of cAMP. In the presence of the phosphodiesterase inhibitor IBMX, the cAMP accumulated owing to this stimulation and released by cell lysis is used in a competitive detection method. In this test, the cAMP present in the lysate competes with a fluorescence-labelled cAMP (cAMP-d2) for binding to an Eu cryptate-labelled anti-cAMP antibody.
(§2) In the absence of cellular cAMP a maximal signal is produced, which is attributable to the binding of this cAMP-d2 molecule to the antibody. After excitation of the […] at 337 nm, there is a fluorescence resonance energy transfer (FRET) to the Eu cryptate molecules of the anti-cAMP antibody (labelled therewith), followed by a long-lasting emission signal at 665 nm (and at […]). Both signals are measured in a suitable measurement instrument with a time delay, i.e. after decay of the background fluorescence. Any increase in the low FRET signal caused by prostaglandin E2 administration (measured as well ratio change=emission665 nm/emission620 nm*10000) indicates the action of antagonists.
2.2.1. Test for Antagonism (Data Per Well of a 384-Well Plate):
(§3) To a test plate with the substance solutions already added (0.05 μl; 100% DMSO, concentration range from 0.8 nM-16.5 μM) were added 4 μl of a cAMP-d2/cell suspension (312500 cells/ml). After a 20-minute preincubation at room temperature (RT), 2 μl of a 3×PGE2 solution (0.3 nM, in PBS-IBMX) were added and incubated in the presence of the agonist for a further 60 mins at RT (volume: ˜6 μl). Next the reaction was stopped by addition of 2 μl of lysis buffer and incubated for a further 20 mins at RT before the actual measurement (volume: ˜8 μl).

[2] = biological target: EP2 subtype of the human PGE2 receptor (Homo sapiens, UniProt P43116); test: cAMP antagonism test on the human EP2 receptor (HTRF cAMP detection); settings: hEP2 receptor, read-out: Antagonism hEP2 IC50
Sequence of EP2 subtype of the human PGE2 receptor (P43116 whole entry): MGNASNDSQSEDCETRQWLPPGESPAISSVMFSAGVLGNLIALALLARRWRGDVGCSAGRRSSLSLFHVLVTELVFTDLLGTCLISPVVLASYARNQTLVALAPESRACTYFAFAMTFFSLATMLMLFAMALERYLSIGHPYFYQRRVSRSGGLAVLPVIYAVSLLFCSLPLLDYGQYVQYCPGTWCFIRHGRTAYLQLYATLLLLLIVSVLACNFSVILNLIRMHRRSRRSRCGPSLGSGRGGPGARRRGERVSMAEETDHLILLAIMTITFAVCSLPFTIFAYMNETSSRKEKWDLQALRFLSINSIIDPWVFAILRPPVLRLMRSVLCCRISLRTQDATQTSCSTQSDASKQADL
From the text: 1. Detection of Antagonism to the Human Prostaglandin E2 (Subtype EP2) Receptor Signal
as §1, with “EP2” for “EP4”
as §2, with “cellular cAMP,” for “cellular cAMP”
1.2.1. Test for Antagonism (Data Per Well of a 384-Well Plate):
as §3, with “(625000” for “(312500”, “(1.5” for “(0.3”

[3] = biological target: T1, human PGD receptor (Homo sapiens, UniProt Q13258); test: cAMP antagonism test on the human prostaglandin D receptor (HTRF cAMP detection); settings: selectivity towards hDP, IC50 measured by cAMP antagonism test
T1 sequence (Q13258 1-359): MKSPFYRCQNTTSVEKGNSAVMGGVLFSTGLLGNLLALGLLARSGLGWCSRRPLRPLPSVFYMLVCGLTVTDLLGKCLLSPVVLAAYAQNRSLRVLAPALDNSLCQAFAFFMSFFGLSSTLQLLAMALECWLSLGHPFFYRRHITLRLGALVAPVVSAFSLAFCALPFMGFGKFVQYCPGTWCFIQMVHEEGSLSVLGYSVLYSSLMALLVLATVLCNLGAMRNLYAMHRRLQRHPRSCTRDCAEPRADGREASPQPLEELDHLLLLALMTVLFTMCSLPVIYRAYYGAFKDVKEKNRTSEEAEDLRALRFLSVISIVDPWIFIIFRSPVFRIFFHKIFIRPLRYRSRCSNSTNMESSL
From the text: 3. Detection of Antagonism to the Human Prostaglandin D Receptor Signal
as §1, with “of prostaglandin D2” for “of PGE2”, “the” for “the EP4 subtype of the”, “human PGD” for “human PGE2”
as §2, with “cellular cAMP,” for “cellular cAMP”
3.2.1. Test for Antagonism (Data Per Well of a 384-Well Plate):
as §3, with “(625000” for “(312500”, “3×PGD2” for “3×PGE2”, “(6” for “(0.3”, “30” for “60”

Sequence of EP4 subtype of the human PGE2 receptor (P35408 whole entry): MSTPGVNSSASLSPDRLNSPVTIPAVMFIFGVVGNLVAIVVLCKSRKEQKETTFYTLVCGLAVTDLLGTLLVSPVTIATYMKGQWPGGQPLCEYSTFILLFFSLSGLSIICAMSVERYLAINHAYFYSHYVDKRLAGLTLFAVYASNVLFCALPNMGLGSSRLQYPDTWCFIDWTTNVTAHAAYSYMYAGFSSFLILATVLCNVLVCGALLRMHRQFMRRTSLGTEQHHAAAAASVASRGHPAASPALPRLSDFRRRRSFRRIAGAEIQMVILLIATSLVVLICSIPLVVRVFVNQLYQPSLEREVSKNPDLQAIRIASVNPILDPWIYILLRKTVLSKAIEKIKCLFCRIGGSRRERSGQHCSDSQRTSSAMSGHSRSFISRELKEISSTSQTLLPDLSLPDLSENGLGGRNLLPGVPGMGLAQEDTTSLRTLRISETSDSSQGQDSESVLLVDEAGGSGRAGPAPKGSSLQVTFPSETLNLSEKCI

SMILES | Selectivity hEP2/hEP4 [1] | IC50 [2] [nM] | Selectivity hEP2/hDP [3]
Cc1c(C(=O)NCCO)ccc2nn(CC3CCN(C(=O)c4ccc(-c5ccc(F)cc5)cc4)CC3)cc12 [Example 410, 2-({1-[(4′-fluorobiphenyl-4-yl)carbonyl]piperidin-4-yl}methyl)-N-(2-hydroxyethyl)-4-methyl-2H-indazol-5-carboxamide] | xxx (xxx > 100) | 90.4 | xxx (xxx > 100)
Cc1c(C(=O)NCC(C)OCC2CC2)ccc2nn(CC3CCN(C(=O)c4ccc(Oc5ccc(F)cc5)cc4)CC3)cc12 (racemic) [Example 103, (+/−)-N-[2-(cyclo-propylmethoxy)-propyl]-2-({1-[4-(4-fluorophenoxy)-benzoyl]piperidin-4-yl}-methyl)-4-methyl-2H-indazol-5-carboxamide] | xx (xx: 10-100) | 595 | xx (xx: 10-100)
Cc1cc2nn(CC3CN(C(=O)c4ccc(Oc5ccc(C(F)(F)F)cc5)cc4)C3)cc2cc1C(=O)NCC(F)(F)F [Example 201, 6-methyl-N-(2,2,2-trifluoroethyl)-2-[(1-{4-[4-(trifluoromethyl)phenoxy]benzoyl}azetidin-3-yl)methyl]-2H-indazol-5-carboxamide] | xxx (xxx > 100) | 24.9 | xxx (xxx > 100)
Cc1c(C(=O)NCCOC(C)(C)C)ccc2nn(CC3CN(C(=O)c4ccc(Cl)cc4)C3)cc12 [Example 153, N-(2-tert-butoxyethyl)-2-{[1-(4-chlorobenzoyl)azetidin-3-yl]methyl}-4-methyl-2H-indazol-5-carboxamide] | xxx (xxx > 100) | 60.8 | xxx (xxx > 100)
Cc1c(C(=O)NCC2COCCO2)ccc2nn(CC3CN(C(=O)c4ccc(Oc5ccc(F)cc5)cc4)C3)cc12 (racemic) [Example 148, (+/−)-N-(1,4-dioxan-2-ylmethyl)-2-({1-[4-(4-fluorophenoxy)benzoyl]azetidin-3-yl}methyl)-4-methyl-2H-indazol-5-carboxamide] | xxx (xxx > 100) | 27.4 | xxx (xxx > 100)
Cc1c(C(=O)NCC(F)(F)F)ccc2nn(CC3CCN(C(=O)c4ccc(-c5ccc(C(F)(F)F)cn5)cc4)CC3)cc12 [Example 312, 4-methyl-N-(2,2,2-trifluoroethyl)-2-[(1-{4-[5-(trifluoromethyl)pyridin-2-yl]-benzoyl}piperidin-4-yl)methyl]-2H-indazol-5-carboxamide] | xxx (xxx > 100) | 158 | xxx (xxx > 100)
Cc1c(C(=O)NCC(C)OCC2CC2)ccc2nn(CC3CCN(C(=O)c4ccc(-c5ccc(F)cc5)cc4)CC3)cc12 (racemic) [Example 105, (+/−)-N-[2-(cyclo-propylmethoxy)-propyl]-2-({l-[(4′-fluorobiphenyl-4-yl)carbonyl]-piperidin-4-yl}-methyl)-4-methyl-2H-indazol-5-carboxamide] | xx (xx: 10-100) | 285 | xx (xx: 10-100)
Cc1c(C(=O)NCC(F)(F)F)ccc2nn(CC3CN(C(=O)c4ccc(-c5ccc(F)cc5)cc4)C3)cc12 [Example 161, 2-({1-[(4′-fluorobiphenyl-4-yl)carbonyl]azetidin-3-yl}methyl)-4-methyl-N-(2,2,2-trifluoroethyl)-2H-indazol-5-carboxamide] | xxx (xxx > 100) | 98.2 | xxx (xxx > 100)
Cc1c(C(=O)NCC2COCCO2)ccc2nn(CC3CCN(C(=O)c4ccc(Cl)cc4)CC3)cc12 (racemic) [Example 413, (+/−)-2-{[1-(4-chlorobenzoyl)piperidin-4-yl]methyl}-N-(1,4-dioxan-2-ylmethyl)-4-methyl-2H-indazol-5-carboxamide] | xxx (xxx > 100) | 37.8 | xxx (xxx > 100)
CCOc1c(C(=O)NCCOC)ccc2nn(CC3CCN(C(=O)c4ccc(S(F)(F)(F)(F)F)cc4)CC3)cc12 [Example 275, 4-ethoxy-N-(2-methoxyethyl)-2-({1-[4-(pentafluoro-λ^6-sulphanyl)benzoyl]-piperidin-4-yl}methyl)-2H-indazol-5-carboxamide] | xxx (xxx > 100) | 34.5 | xxx (xxx > 100)
Cc1c(C(=O)NCC(F)(F)F)ccc2nn(CC3CCN(C(=O)c4cnc(-c5ccccc5)o4)CC3)cc12 [Example 300, 4-methyl-2-({1-[(2-phenyloxazol-5-yl)carbonyl]piperidin-4-yl}methyl)-N-(2,2,2-trifluoroethyl)-2H-indazol-5-carboxamide] | xxx (xxx > 100) | 79.8 | xxx (xxx > 100)
Cc1c(C(=O)NCC(F)(F)F)ccc2nn(CC3CCN(C(=O)c4ccc(Oc5cccc(C(F)(F)F)n5)cc4)CC3)cc12 [Example 304, 4-methyl-N-(2,2,2-trifluoroethyl)-2-{[1-(4-{[6-(trifluoromethyl)pyridin-2-yl]-oxy}benzoyl)piperidin-4-yl]methyl}-2H-indazol-5-carboxamide] | xxx (xxx > 100) | 99.8 | xxx (xxx > 100)
COCCNC(=O)c1ccc2nn(CC3CCN(C(=O)c4ccc(Oc5ccc(F)cc5F)cc4)CC3)cc2c1C [Example 358, 2-({1-[4-(2,4-difluorophenoxy)benzoyl]piperidin-4-yl}methyl)-N-(2-methoxy-ethyl)-4-methyl-2H-indazol-5-carboxamide] | xxx (xxx > 100) | 8.01 | xxx (xxx > 100)

— patent US9062041B2 (Bayer Intellectual Property GmbH, priority 2011, dated 2015)
